Columns and labels:
Type in all cases: in vivo
[1] = tested on: redroot pigweed (Amaranthus retroflexus, AMARE); experiment: Pre-emerge test, greenhouse herbicide activity screening; conditions: pre-emerge, 14 days after application, rating scale 0-100
Method in brief: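 Rating: 0–100 visual injury, 14 DAA. Application: acetone, 187 l/ha, 15–1000 g ai/ha, flat-fan track sprayer with nozzle 40–45 cm above soil or canopy. Post-emerge runs used 0.25% v/v surfactant on 2–3 leaf plants.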

[2] = tested on: velvetleaf (Abutilon theophrasti, ABUTH); experiment: Post-emerge test, greenhouse herbicide activity screening; conditions: post-emerge, 14 days after application, rating scale 0-100
Method in brief: (§1)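 Fourteen days after spraying, crop and weed injury was graded visually from 0, no effect, to 100, every plant dead. Test substances were dissolved in acetone and applied at 15–1000 g ai/ha with a flat-fan nozzle. Application was either pre-emergence, one day after sowing, or post-emergence at the 2–3 leaf stage.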

[3] = tested on: redroot pigweed (Amaranthus retroflexus, AMARE); experiment: as above; conditions: post-emerge, 14 days after application
Method in brief: as §1

[4] = tested on: large crabgrass (Digitaria sanguinalis, DIGSA); experiment: as above; conditions: post-emerge, 14 days after application, rating scale 0-100
Method in brief: as §1

[5] = tested on: lambsquarters (Chenopodium album, CHEAL); experiment: as above; conditions: post-emerge, 14 days after application, rating scale 0-100
Method in brief: as §1

[6] = tested on: barnyardgrass (Echinochloa crus-galli, ECHCG); experiment: as above; conditions: post-emerge, 14 days after application, rating scale 0-100
Method in brief: as §1

[7] = tested on: ivyleaf morningglory (Ipomoea hederacea, IPOHE); experiment: as above; conditions: post-emerge, 14 days after application, rating scale 0-100
Method in brief: as §1

[8] = tested on: common ragweed (Ambrosia artemisizfolia L., AMBEL); experiment: as above; conditions: post-emerge, 14 days after application, rating scale 0-100
Method in brief: as §1

[9] = tested on: sicklepod (Cassia obtusifolia, CASOB); experiment: as above; conditions: post-emerge, 14 days after application, rating scale 0-100
Method in brief: as §1

[10] = tested on: green foxtail (Setaria viridis, SETVI); experiment: as above; conditions: post-emerge, 14 days after application, rating scale 0-100
Method in brief: as §1

[11] = tested on: johnsongrass (Sorghum halepense, SORHA); experiment: as above; conditions: post-emerge, 14 days after application, rating scale 0-100
Method in brief: as §1

[12] = tested on: upland rice (Oryza sp., var. Tebonnet, RICE); experiment: Pre-emerge test, crop safety; conditions: pre-emerge, 14 days after application, rating scale 0-100
Method in brief: (§2)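 Compounds in acetone were track-sprayed at 15-1000 g ai/ha (187 l/ha) on sandy loam pots: pre-emerge one day after seeding, post-emerge at 2-3 leaf stage with 0.25% v/v non-ionic surfactant. Phytotoxicity was rated 14 days later on a 0 (no damage) to 100 (complete death) scale.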

[13] = tested on: field corn (Zea mays L., var. Dekalb 535, CORN); experiment: Pre-emerge test, crop safety; conditions: pre-emerge, 14 days after application, rating scale 0-100
Method in brief: as §2

[14] = tested on: velvetleaf (Abutilon theophrasti, ABUTH); experiment: Pre-emerge test, greenhouse herbicide activity screening; conditions: pre-emerge, 14 days after application, rating scale 0-100
Method in brief: (§3)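 Plants grown in 10 cm pots of sandy loam mix received acetone-dissolved compounds through a moving flat-fan nozzle. Doses ranged from 15 to 1000 g ai/ha. Pre-emerge pots were seeded one day earlier, post-emerge pots 8–21 days earlier. Fourteen days on, each pot was graded 0–100 for damage.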

[15] = tested on: large crabgrass (Digitaria sanguinalis, DIGSA); experiment: as above; conditions: pre-emerge, 14 days after application, rating scale 0-100
Method in brief: as §3

[16] = tested on: lambsquarters (Chenopodium album, CHEAL); experiment: as above; conditions: pre-emerge, 14 days after application, rating scale 0-100
Method in brief: as §3

[17] = tested on: barnyardgrass (Echinochloa crus-galli, ECHCG); experiment: as above; conditions: pre-emerge, 14 days after application, rating scale 0-100
Method in brief: as §3

[18] = tested on: ivyleaf morningglory (Ipomoea hederacea, IPOHE); experiment: as above; conditions: pre-emerge, 14 days after application, rating scale 0-100
Method in brief: as §3

[19] = tested on: sicklepod (Cassia obtusifolia, CASOB); experiment: as above; conditions: pre-emerge, 14 days after application, rating scale 0-100
Method in brief: as §3

[20] = tested on: green foxtail (Setaria viridis, SETVI); experiment: as above; conditions: pre-emerge, 14 days after application, rating scale 0-100
Method in brief: as §3

[21] = tested on: johnsongrass (Sorghum halepense, SORHA); experiment: as above; conditions: pre-emerge, 14 days after application, rating scale 0-100
Method in brief: as §3

[22] = tested on: upland rice (Oryza sp., var. Tebonnet, RICE); experiment: Post-emerge test, crop safety; conditions: post-emerge, 14 days after application, rating scale 0-100
Method in brief: (§4)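 Each test used a mechanized track sprayer delivering 187 l/ha of acetone solution at 15–1000 g ai/ha. Post-emerge foliage at 2–3 leaves was treated with added 0.25% v/v non-ionic surfactant and bottom-watered only. Injury was assessed on day 14, where 100 means total kill.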

[23] = tested on: field corn (Zea mays L., var. Dekalb 535, CORN); experiment: Post-emerge test, crop safety; conditions: post-emerge, 14 days after application, rating scale 0-100
Method in brief: as §4

Structure (SMILES): CCOC(=O)C(Cl)Cc1c(OC)c(Cl)cc(F)c1-c1nn(C)c(C(F)(F)F)c1Cl (stereo not shown) [14-56]
- phytotoxicity rating AMARE ([1]; 63 g ai/ha): 100
- phytotoxicity rating AMARE ([1]; 250 g ai/ha): 100
- Post-emerge Herbicidal Activity ABUTH (phytotoxicity rating) ([2]; 63 g ai/ha): 70
- Post-emerge Herbicidal Activity ABUTH (phytotoxicity rating) ([2]; 250 g ai/ha): 100
- Post-emerge Herbicidal Activity AMARE (phytotoxicity rating) ([3]; 63 g ai/ha, rating scale 0-100 (0 no damage, 100 complete death)): 100
- Post-emerge Herbicidal Activity AMARE (phytotoxicity rating) ([3]; 250 g ai/ha, rating scale 0-100): 100
- Post-emerge Herbicidal Activity DIGSA (phytotoxicity rating) ([4]; 63 g ai/ha): 10
- Post-emerge Herbicidal Activity DIGSA (phytotoxicity rating) ([4]; 250 g ai/ha): 50
- Post-emerge Herbicidal Activity CHEAL (phytotoxicity rating) ([5]; 63 g ai/ha): 99
- Post-emerge Herbicidal Activity CHEAL (phytotoxicity rating) ([5]; 250 g ai/ha): 100
- Post-emerge Herbicidal Activity ECHCG (phytotoxicity rating) ([6]; 63 g ai/ha): 20
- Post-emerge Herbicidal Activity ECHCG (phytotoxicity rating) ([6]; 250 g ai/ha): 80
- Post-emerge Herbicidal Activity IPOHE (phytotoxicity rating) ([7]; 63 g ai/ha): 100
- Post-emerge Herbicidal Activity IPOHE (phytotoxicity rating) ([7]; 250 g ai/ha): 100
- Post-emerge Herbicidal Activity AMBEL (phytotoxicity rating) ([8]; 63 g ai/ha): 90
- Post-emerge Herbicidal Activity AMBEL (phytotoxicity rating) ([8]; 250 g ai/ha): 80
- Post-emerge Herbicidal Activity CASOB (phytotoxicity rating) ([9]; 63 g ai/ha): 30
- Post-emerge Herbicidal Activity CASOB (phytotoxicity rating) ([9]; 250 g ai/ha): 40
- Post-emerge Herbicidal Activity SETVI (phytotoxicity rating) ([10]; 63 g ai/ha): 30
- Post-emerge Herbicidal Activity SETVI (phytotoxicity rating) ([10]; 250 g ai/ha): 70
- Post-emerge Herbicidal Activity SORHA (phytotoxicity rating) ([11]; 63 g ai/ha): 30
- Post-emerge Herbicidal Activity SORHA (phytotoxicity rating) ([11]; 250 g ai/ha): 70
- phytotoxicity rating RICE ([12]; 63 g ai/ha): 10
- phytotoxicity rating RICE ([12]; 250 g ai/ha): 10
- phytotoxicity rating CORN ([13]; 63 g ai/ha): 0
- phytotoxicity rating CORN ([13]; 250 g ai/ha): 0
- phytotoxicity rating ABUTH ([14]; 63 g ai/ha): 30
- phytotoxicity rating ABUTH ([14]; 250 g ai/ha): 60
- phytotoxicity rating DIGSA ([15]; 63 g ai/ha): 30
- phytotoxicity rating DIGSA ([15]; 250 g ai/ha): 40
- phytotoxicity rating CHEAL ([16]; 63 g ai/ha): 80
- phytotoxicity rating CHEAL ([16]; 250 g ai/ha): 100
- phytotoxicity rating ECHCG ([17]; 63 g ai/ha): 0
- phytotoxicity rating ECHCG ([17]; 250 g ai/ha): 0
- phytotoxicity rating IPOHE ([18]; 63 g ai/ha): 0
- phytotoxicity rating IPOHE ([18]; 250 g ai/ha): 0
- phytotoxicity rating CASOB ([19]; 63 g ai/ha): 0
- phytotoxicity rating CASOB ([19]; 250 g ai/ha): 10
- phytotoxicity rating SETVI ([20]; 63 g ai/ha): 20
- phytotoxicity rating SETVI ([20]; 250 g ai/ha): 70
- phytotoxicity rating SORHA ([21]; 63 g ai/ha): 0
- phytotoxicity rating SORHA ([21]; 250 g ai/ha): 30
- Post-emerge Herbicidal Activity RICE (crop damage rating) ([22]; 63 g ai/ha): 0
- Post-emerge Herbicidal Activity RICE (crop damage rating) ([22]; 250 g ai/ha): 25
- Post-emerge Herbicidal Activity CORN (crop damage rating) ([23]; 63 g ai/ha): 10
- Post-emerge Herbicidal Activity CORN (crop damage rating) ([23]; 250 g ai/ha): 30

From patent US6355799B1, “Substituted benzene compounds, process for their preparation, and herbicidal and defoliant compositions containing them” (ISK Americas Incorporated, priority 1997, dated 2002)
